What was measured:
S. aureus DSM 20231 [1] = assay: fitness (endpoint OD595 vs no drug) (fraction); higher = more growth
In short: (§1)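 Fitness compares growth at the stationary-phase transition with the robust mean of no-drug control wells, as a ratio of optical densities. The ratio is capped at 1. Wells of 384-well plates held 30 µl, or 55 µl for S. pneumoniae, inoculated at OD595 0.01. Readings at OD595 every 30 min for 14 h at 37 °C were corrected against the first reading.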

S. aureus Newman [2] = assay: as above
In short: as §1

S. pneumoniae D39V [3] = assay: as above
In short: as §1

B. subtilis 168 = assay: Bliss interaction score (quartile over a dose matrix) (fitness difference); higher = more antagonism (negative = synergy)
In short: (§2)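 Values were capped at 1 after dividing OD595 at stationary-phase entry by the plate's robust no-drug mean. This ratio is fitness, and single-drug fitness was inferred from the combination data. The Bliss score is observed minus product-expected fitness, given as quartiles over technical, biological and donor/recipient replicates.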

S. aureus DSM 20231 [4] = assay: as above
In short: as §2

S. aureus Newman [5] = assay: as above
In short: as §2

S. pneumoniae D39V [6] = assay: as above
In short: as §2
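Wherever Bliss interaction score (quartile over a dose matrix) is given: first quartile when negative (synergy) and third quartile when positive (antagonism).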

CO/N=C(\C(=O)N[C@@H]1C(=O)N2C(C(=O)[O-])=C(C[N+]3(C)CCCC3)CS[C@H]12)c1csc(N)n1 [Cefepime] + C[C@@H]1O[C@@H]1P(=O)(O)O [Fosfomycin]
Conditions | fitness
S. aureus DSM 20231 [1], first compound 0.125 µg/mL, partner 0.781 µg/mL | 0.649
S. aureus DSM 20231 [1], first compound 0.125 µg/mL, partner 1.562 µg/mL | 0.503
S. aureus DSM 20231 [1], first compound 0.125 µg/mL, partner 3.124 µg/mL | 0.456
S. aureus DSM 20231 [1], first compound 0.25 µg/mL, partner 0.781 µg/mL | 0.633
S. aureus DSM 20231 [1], first compound 0.25 µg/mL, partner 1.562 µg/mL | 0.512
S. aureus DSM 20231 [1], first compound 0.25 µg/mL, partner 3.124 µg/mL | 0.488
S. aureus DSM 20231 [1], first compound 0.5 µg/mL, partner 0.781 µg/mL | 0.67
S. aureus DSM 20231 [1], first compound 0.5 µg/mL, partner 1.562 µg/mL | 0.559
S. aureus DSM 20231 [1], first compound 0.5 µg/mL, partner 3.124 µg/mL | 0.539
S. aureus Newman [2], first compound 0.125 µg/mL, partner 0.781 µg/mL | 0.691
S. aureus Newman [2], first compound 0.125 µg/mL, partner 1.562 µg/mL | 0.599
S. aureus Newman [2], first compound 0.125 µg/mL, partner 3.124 µg/mL | 0.301
S. aureus Newman [2], first compound 0.25 µg/mL, partner 0.781 µg/mL | 0.653
S. aureus Newman [2], first compound 0.25 µg/mL, partner 1.562 µg/mL | 0.587
S. aureus Newman [2], first compound 0.25 µg/mL, partner 3.124 µg/mL | 0.305
S. aureus Newman [2], first compound 0.5 µg/mL, partner 0.781 µg/mL | 0.659
S. aureus Newman [2], first compound 0.5 µg/mL, partner 1.562 µg/mL | 0.568
S. aureus Newman [2], first compound 0.5 µg/mL, partner 3.124 µg/mL | 0.276
S. pneumoniae D39V [3], first compound 0.007 µg/mL, partner 1.25 µg/mL | 0.966
S. pneumoniae D39V [3], first compound 0.007 µg/mL, partner 2.5 µg/mL | 0.911
S. pneumoniae D39V [3], first compound 0.007 µg/mL, partner 5 µg/mL | 0.677
S. pneumoniae D39V [3], first compound 0.0078 µg/mL, partner 1.25 µg/mL | 0.987
S. pneumoniae D39V [3], first compound 0.0078 µg/mL, partner 2.5 µg/mL | 0.957
S. pneumoniae D39V [3], first compound 0.0078 µg/mL, partner 5 µg/mL | 0.755
S. pneumoniae D39V [3], first compound 0.014 µg/mL, partner 1.25 µg/mL | 0.984
S. pneumoniae D39V [3], first compound 0.014 µg/mL, partner 2.5 µg/mL | 0.889
S. pneumoniae D39V [3], first compound 0.014 µg/mL, partner 5 µg/mL | 0.62
S. pneumoniae D39V [3], first compound 0.0155 µg/mL, partner 1.25 µg/mL | 0.962
S. pneumoniae D39V [3], first compound 0.0155 µg/mL, partner 2.5 µg/mL | 0.932
S. pneumoniae D39V [3], first compound 0.0155 µg/mL, partner 5 µg/mL | 0.633
S. pneumoniae D39V [3], first compound 0.028 µg/mL, partner 1.25 µg/mL | 0.844
S. pneumoniae D39V [3], first compound 0.028 µg/mL, partner 2.5 µg/mL | 0.707
S. pneumoniae D39V [3], first compound 0.028 µg/mL, partner 5 µg/mL | 0.273
S. pneumoniae D39V [3], first compound 0.031 µg/mL, partner 1.25 µg/mL | 0.789

Conditions | Bliss interaction score
B. subtilis 168 | -0.0571
S. aureus DSM 20231 [4] | -0.0913
S. aureus Newman [5] | 0.16
S. pneumoniae D39V [6] | -0.0837

CO/N=C(\C(=O)N[C@@H]1C(=O)N2C(C(=O)[O-])=C(C[N+]3(C)CCCC3)CS[C@H]12)c1csc(N)n1 [Cefepime] + C[n+]1ccc(-c2cc[n+](C)cc2)cc1 [Paraquat]
Conditions | fitness
S. aureus DSM 20231 [1], first compound 0.125 µg/mL, partner 1.25 µg/mL | 0.9
S. aureus DSM 20231 [1], first compound 0.125 µg/mL, partner 2.5 µg/mL | 0.888
S. aureus DSM 20231 [1], first compound 0.125 µg/mL, partner 5 µg/mL | 0.874
S. aureus DSM 20231 [1], first compound 0.25 µg/mL, partner 1.25 µg/mL | 0.889
S. aureus DSM 20231 [1], first compound 0.25 µg/mL, partner 2.5 µg/mL | 0.876
S. aureus DSM 20231 [1], first compound 0.25 µg/mL, partner 5 µg/mL | 0.821
S. aureus DSM 20231 [1], first compound 0.5 µg/mL, partner 2.5 µg/mL | 0.853
S. aureus DSM 20231 [1], first compound 0.5 µg/mL, partner 5 µg/mL | 0.837
S. aureus Newman [2], first compound 0.125 µg/mL, partner 1.25 µg/mL | 0.901
S. aureus Newman [2], first compound 0.125 µg/mL, partner 2.5 µg/mL | 0.916
S. aureus Newman [2], first compound 0.125 µg/mL, partner 5 µg/mL | 0.898
S. aureus Newman [2], first compound 0.25 µg/mL, partner 1.25 µg/mL | 0.851
S. aureus Newman [2], first compound 0.25 µg/mL, partner 2.5 µg/mL | 0.854
S. aureus Newman [2], first compound 0.25 µg/mL, partner 5 µg/mL | 0.846
S. aureus Newman [2], first compound 0.5 µg/mL, partner 1.25 µg/mL | 0.768
S. aureus Newman [2], first compound 0.5 µg/mL, partner 2.5 µg/mL | 0.773
S. aureus Newman [2], first compound 0.5 µg/mL, partner 5 µg/mL | 0.839
S. pneumoniae D39V [3], first compound 0.007 µg/mL, partner 1.5 µg/mL | 0.99
S. pneumoniae D39V [3], first compound 0.007 µg/mL, partner 3 µg/mL | 0.996
S. pneumoniae D39V [3], first compound 0.007 µg/mL, partner 6 µg/mL | 0.971
S. pneumoniae D39V [3], first compound 0.014 µg/mL, partner 1.5 µg/mL | ≥ 1
S. pneumoniae D39V [3], first compound 0.014 µg/mL, partner 3 µg/mL | ≥ 1
S. pneumoniae D39V [3], first compound 0.014 µg/mL, partner 6 µg/mL | ≥ 1
S. pneumoniae D39V [3], first compound 0.028 µg/mL, partner 1.5 µg/mL | 0.934
S. pneumoniae D39V [3], first compound 0.028 µg/mL, partner 3 µg/mL | 0.917
S. pneumoniae D39V [3], first compound 0.028 µg/mL, partner 6 µg/mL | 0.869

fitness, S. pneumoniae D39V [3], one replicate
Conditions | first compound 0.0078 µg/mL | first compound 0.0155 µg/mL | first compound 0.031 µg/mL
partner 1.5 µg/mL | 0.994 | 0.985 | 0.957
partner 3 µg/mL | ≥ 1 | ≥ 1 | 0.975
partner 6 µg/mL | ≥ 1 | ≥ 1 | ≥ 1

Conditions | Bliss interaction score
B. subtilis 168 | -0.121
S. aureus DSM 20231 [4] | -0.0615
S. aureus Newman [5] | 0.0489
S. pneumoniae D39V [6] | 0.0315
